≈ marks a conversion by molar mass, not a printed value. Read-outs that look alike come from different tables or passages of the source.
Assays:
JAK3 pathway = assay: Cell based JAK3 pathway inhibition (STAT6-bla RA1 cells, IL-4 activated); details: for Emax: cell based JAK3 pathway inhibition, maximal inhibition, read-out: Max % Inh; for IC50: STAT6-bla RA1 cells, IL-4 at EC80
Experimental: 32 μL of the cell suspension (25,000 cells) was added to each well of a 384-well TC-Treated assay plate. Cells in Assay Media were incubated for 16-24 hours in the plate at 37° C./5% CO2 in a humidified incubator. 4 μL of a 10× serial dilution of a compound of the invention was added to appropriate wells of the plate and pre-incubated at 37° C./5% CO2 in a humidified incubator with cells for 30 minutes. 4 μL of 10× control activator IL-4 at the predetermined EC80 concentration was added to wells containing the compound of the invention. The plate was incubated for 5 hours at 37° C./5% CO2 in a humidified incubator. 8 μL of 1 μM Substrate Loading Solution was added to each well and the plate was incubated for 2 hours at room temperature. The plate was read on a fluorescence plate reader.

JAK3 = target: T1, JAK3 (Homo sapiens, UniProt P52333); assay: JAK3 enzymatic activity assay (Z'-LYTE Biochemical Kinase Assay, 2 hr preincubation at 4° C.); details: cell free, 1% DMSO, read-out: JAK3 activity cell free (2 hr preincubation at (4° C.) Kj)
T1 construct: purchased Invitrogen, Madison, Wis
T1 sequence (P52333 1-1124): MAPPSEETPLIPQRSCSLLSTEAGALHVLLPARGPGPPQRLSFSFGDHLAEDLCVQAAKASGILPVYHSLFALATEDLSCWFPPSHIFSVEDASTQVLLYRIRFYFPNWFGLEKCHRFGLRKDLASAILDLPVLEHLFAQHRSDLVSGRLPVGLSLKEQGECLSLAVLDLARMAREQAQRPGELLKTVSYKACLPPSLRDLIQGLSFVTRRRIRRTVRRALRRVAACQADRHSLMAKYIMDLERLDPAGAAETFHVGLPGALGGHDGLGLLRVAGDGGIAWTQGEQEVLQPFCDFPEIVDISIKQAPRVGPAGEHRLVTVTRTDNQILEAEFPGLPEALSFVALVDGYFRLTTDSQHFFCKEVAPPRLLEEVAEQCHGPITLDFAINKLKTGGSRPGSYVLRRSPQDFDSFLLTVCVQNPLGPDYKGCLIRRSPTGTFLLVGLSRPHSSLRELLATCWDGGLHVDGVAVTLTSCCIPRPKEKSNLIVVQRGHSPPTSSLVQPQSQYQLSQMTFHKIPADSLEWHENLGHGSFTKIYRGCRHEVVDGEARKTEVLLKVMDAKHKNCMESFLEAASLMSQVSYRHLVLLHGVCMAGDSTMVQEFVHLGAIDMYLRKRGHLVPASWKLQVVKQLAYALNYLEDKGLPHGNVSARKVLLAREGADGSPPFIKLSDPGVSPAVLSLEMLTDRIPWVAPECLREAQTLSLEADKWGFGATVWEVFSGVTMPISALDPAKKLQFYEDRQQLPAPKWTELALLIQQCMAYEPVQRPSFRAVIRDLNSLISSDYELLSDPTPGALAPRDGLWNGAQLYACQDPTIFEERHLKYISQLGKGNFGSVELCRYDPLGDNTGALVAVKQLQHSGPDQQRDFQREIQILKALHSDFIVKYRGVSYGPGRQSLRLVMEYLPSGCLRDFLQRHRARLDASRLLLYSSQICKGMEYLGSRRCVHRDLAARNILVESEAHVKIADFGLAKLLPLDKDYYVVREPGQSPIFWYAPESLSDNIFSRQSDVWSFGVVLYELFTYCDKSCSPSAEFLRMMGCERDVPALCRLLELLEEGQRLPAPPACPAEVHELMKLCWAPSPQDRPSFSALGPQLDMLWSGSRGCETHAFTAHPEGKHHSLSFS
Experimental: The assays were performed according to manufacturer's protocols, except that prior to the kinase reaction they were pre-incubated for 2 hours at 4° C., in order to be able to assay for time-dependent inhibition.
In addition to the compound, each 10 μL JAK3 kinase reaction contained 0.43-1.89 ng JAK3 and 2 μM peptide substrate in 50 mM HEPES (pH 7.5), 0.01% BRIJ-35, 10 mM MgCl2 and 1 mM EGTA. The kinase reaction was allowed to proceed for 1 hour.

physchem = details: pH 7.4, aqueous buffer, thermodynamic from solid
Experimental: The test concentration was 100 μM (0% of DMSO for test compounds, 1% of DMSO for reference compounds). The test system was a 100 mM phosphate buffer (pH 7.4). Sample size was duplicates (n=2) and the bioanalytical method was LC-UV (Agilent-1200). Mobile phase A: H2O-1% TFA, B: MeOH-1% TFA; column Boston Symmetrix ODS-H (2.1×50 mm, 5 μm); LC conditions 0.4 mL/Min.
Assay Procedure • 1. For reference compounds: • Add 8 μL of 10 mM DMSO stock solution into 792 μL of 100 mM phosphate buffer (n=2). Final conc.=100 μM (1% of DMSO)
For test compounds: • Add 8 μL of 10 mM DMSO stock solution into the tubes (n=2). • Dry the samples under nitrogen. • Add 800 μL of 100 mM phosphate buffer into the tubes. Final conc.=100 μM (0% of DMSO) • 2. Sample tubes are shaken for 1 hour (1000 rpm) at room temperature and 37° C. • 3. Samples are centrifuged (10 min-12000 rpm) to precipitate un-dissolved particles. • 4. Supernatants are transferred to new tubes • 5. Concentrations of the supernatants after centrifugation are determined by LC-UV detection.

Daudi cells = assay: Daudi CTG assay (Daudi proliferation, 72 hr, Cell Titer Glo); type: cell-based; details: Homo sapiens
Experimental: The compounds of the invention were tested on Daudi proliferation according to the procedure in Example 4 (for Daudi cells): Proliferation of RS4; 11, Ramos, Namalwa, RL, Molt-4 and Daudi cells. The compounds of the invention were tested on Daudi proliferation (72 hr), 3 fold dilution, and 9 points in duplicates. The top concentration for compounds of the invention was 10 uM; reference compound 7A top concentration was 10 uM; and Paclitaxel was 500 nM. Cell viability was determined using the Cell Titer Glo (CTG) reagent and detected by EnVision. EC50s were calculated by Prism 5.
The CellTiter-Glo™ Luminescent Cell Viability Assay uses ATP, a required co-factor of the luciferase reaction, as an indicator of metabolically active cells. The enzyme luciferase acts on luciferin in the presence of Mg^2+and ATP to produce oxyluciferin and to release energy in the form of luminescence. Since the luciferase reaction requires ATP, the luminescence produced is proportional to the amount of ATP present, an indicator of cellular metabolic activity.

[1] = Daudi CTG assay, Daudi proliferation 72 hr, Cell Titer Glo, top concentration 10 uM (Paclitaxel 500 nM), read-out: IC50

SMILES	Ki (JAK3) [nM]	IC50 (JAK3 pathway) [nM]	Emax (JAK3 pathway) [%]	also measured
O=C(c1cc(-c2csc(NCc3ccco3)n2)c[nH]1)N1CCCC1 [5A]	–	–	68	–
O=C(CN1CCOCC1)Nc1cccc(-c2nc(-c3c[nH]c(C(=O)N4CCCC4)c3)cs2)c1 [7A (sample 1), 2-morpholino-N-(3-(4-(5-(pyrrolidine-1-carbonyl)-1H-pyrrol-3-yl)thiazol-2-yl)phenyl)acetamide]	–	–	–	solubility at 1 h (physchem; Solubility (μM) Mean): 5.9 µM (≈ 2.75 µg/mL); solubility at 1 h (physchem; Solubility in PBS): < 10 µM
Cc1csc(Cc2nc(-c3c[nH]c(C(=O)N4CCCC4)c3)cs2)n1 [8A]	1100 to 10000	–	–	–
CCOc1ccc(-c2nc(-c3c[nH]c(C(=O)N4CCCC4)c3)cs2)cc1OC [9A]	1100 to 10000	–	–	–
CN1CCN(CC(=O)Nc2cccc(-c3nc(-c4c[nH]c(C(=O)N5CCCC5)c4)cs3)c2)CC1 [17A]	> 10000	110 to 1000	–	–
O=C(CN1CCCCC1)Nc1cccc(-c2nc(-c3c[nH]c(C(=O)N4CCCC4)c3)cs2)c1 [20A]	–	110 to 1000	80.2	–
O=C(CN1CCOCC1)Nc1ccc(-c2nc(-c3c[nH]c(C(=O)N4CCCC4)c3)cs2)cc1 [22A]	–	110 to 1000	100	–
CN(C)C(=O)c1cc(-c2csc(-c3cccc(NC(=O)CN4CCOCC4)c3)n2)c[nH]1 [23A]	–	1100 to 10000	75.1	–
CN(C)C(=O)c1cc(-c2csc(-c3cccc(NC(=O)CN4CCCCC4)c3)n2)c[nH]1 [24A]	–	1100 to 10000	74.7	–
CN1CCN(CC(=O)Nc2cccc(-c3nc(-c4c[nH]c(C(=O)N(C)C)c4)cs3)c2)CC1 [25A]	–	> 10000	–	–
O=C(CN1CCOCC1)Nc1cccc(-c2nc(-c3c[nH]c(C(=O)NC4CC4)c3)cs2)c1 [27A]	–	1100 to 10000	100	–
NC(=O)c1cc(-c2csc(-c3cccc(NC(=O)CN4CCOCC4)c3)n2)c[nH]1 [29A]	–	> 10000	–	IC50 (Daudi cells; [1]): > 10000 nM
CCN(CC)C(=O)c1cc(-c2csc(-c3cccc(NC(=O)CN4CCOCC4)c3)n2)c[nH]1 [30A]	–	1100 to 10000	98.2	IC50 (Daudi cells; [1]): 1100 to 10000 nM
O=C(CN1CCOCC1)Nc1ccc(-c2nc(-c3c[nH]c(C(=O)N4CCCCC4)c3)cs2)cc1 [31A]	–	1100 to 10000	76.8	IC50 (Daudi cells; [1]): 1100 to 10000 nM
COc1ccc(-c2nc(-c3c[nH]c(C(=O)N4CCCC4)c3)cs2)cc1NC(=O)CN1CCOCC1 [32A]	–	110 to 1000	71.7	IC50 (Daudi cells; [1]): 110 to 1000 nM
COc1ccc(-c2nc(-c3c[nH]c(C(=O)N4CCCC4)c3)cs2)cc1NC(=O)CN1CCCCC1 [33A]	–	110 to 1000	69.8	IC50 (Daudi cells; [1]): 110 to 1000 nM
CCN(CC)CC(=O)Nc1cc(-c2nc(-c3c[nH]c(C(=O)N4CCCC4)c3)cs2)ccc1OC [34A]	–	110 to 1000	79.7	IC50 (Daudi cells; [1]): 110 to 1000 nM
O=C(CN1CCOCC1)Nc1cc(-c2nc(-c3c[nH]c(C(=O)N4CCCC4)c3)cs2)ccc1F [35A]	–	110 to 1000	78.9	IC50 (Daudi cells; [1]): 110 to 1000 nM
CC(=O)O[C@H]1C(=O)[C@@]2(C)[C@H]([C@H](OC(=O)c3ccccc3)[C@]3(O)C[C@H](OC(=O)[C@H](O)[C@@H](NC(=O)c4ccccc4)c4ccccc4)C(C)=C1C3(C)C)[C@]1(OC(C)=O)CO[C@@H]1C[C@@H]2O [Paclitaxel, paclitaxel, reference compound]	–	–	–	IC50 (Daudi cells; Daudi, read-out: Daudi CTG assay IC50, historical data): 4.69 nM; IC50 (Daudi cells; Daudi proliferation 72 hr, control compounds, read-out: Daudi CTG assay control IC50): 4.5 nM

Second part, led by results:

Ki (JAK3) [nM]	IC50 (JAK3 pathway) [nM]	SMILES	Emax (JAK3 pathway) [%]	also measured
1100 to 10000	1100 to 10000	O=C(c1cc(-c2csc(NCc3ccco3)n2)c[nH]1)N1CCCC1 [6A]	–	–
1100 to 10000	–	COc1cccc(-c2nc(-c3c[nH]c(C(=O)N4CCCC4)c3)cs2)c1 [10A]	–	–
–	110 to 1000	O=C(c1cc(-c2csc(Nc3ccccc3)n2)c[nH]1)N1CCCC1 [12A]	81	–
–	110 to 1000	O=C(c1cc(-c2csc(Nc3ccc(F)cc3)n2)c[nH]1)N1CCCC1 [13A]	78	–
1100 to 10000	–	CC(=O)c1ccc(Nc2nc(-c3c[nH]c(C(=O)N4CCCC4)c3)cs2)cc1 [14A]	–	–
> 10000	–	CN(c1ccccc1)c1nc(-c2c[nH]c(C(=O)N3CCCC3)c2)cs1 [15A]	–	–
> 10000	–	O=C(Nc1cccc(-c2nc(-c3c[nH]c(C(=O)N4CCCC4)c3)cs2)c1)c1ccccc1 [16A]	–	–
1100 to 10000	–	O=C(c1cc(-c2csc(Nc3c(F)cc(F)cc3F)n2)c[nH]1)N1CCCC1 [18A]	–	–
1100 to 10000	–	O=C(c1cc(-c2csc(Nc3ccc(N4CCOCC4)cc3)n2)c[nH]1)N1CCCC1 [19A]	–	–
–	110 to 1000	CC(=O)Nc1cccc(-c2nc(-c3c[nH]c(C(=O)N4CCCC4)c3)cs2)c1 [21A]	84.4	–
–	110 to 1000	CN(C)CC(=O)Nc1cccc(-c2nc(-c3c[nH]c(C(=O)N4CCCC4)c3)cs2)c1 [26A]	74.6	–
–	110 to 1000	O=C(Nc1cccc(-c2nc(-c3c[nH]c(C(=O)N4CCCC4)c3)cs2)c1)N1CCOCC1 [28A]	82.3	–
1100 to 10000	–	O=C(c1cc(-c2csc(Nc3cccc(C(F)(F)F)c3)n2)c[nH]1)N1CCCC1 [39A]	–	–
1100 to 10000	–	O=C(c1cc(-c2csc(NC3CCCC3)n2)c[nH]1)N1CCCC1 [45A]	–	–
1100 to 10000	–	O=C(c1cc(-c2csc(NCc3ccc(F)cc3)n2)c[nH]1)N1CCCC1 [47A]	–	–
–	110 to 1000	O=C(c1cc(-c2csc(-c3ccccn3)n2)c[nH]1)N1CCCC1 [53A]	72	–
–	110 to 1000	O=C(c1cc(-c2csc(-c3ccc(Cl)cc3)n2)c[nH]1)N1CCCC1 [61A]	60	–
–	110 to 1000	Cc1ccc(-c2nc(-c3c[nH]c(C(=O)N4CCCC4)c3)cs2)c(C)c1 [63A]	63	–
1100 to 10000	–	Cc1ccccc1-c1nc(-c2c[nH]c(C(=O)N3CCCC3)c2)cs1 [64A]	–	–

From US8937065B2, “Compositions and methods for modulating a kinase” (Clevexel Pharma, priority 2011, dated 2015)
